Assay results reported in ChEMBL document CHEMBL3507680, “University of Dundee, Gates Library screen for HepG2 cell viability”.

Test: Human HepG2 cell viability assay in 384 well format
Type: toxicity, cell-based
Set-up: dose 125 nL, time 70.5 hour; cytotoxicity at 70.5 h: concentration not given beside the values
Conditions: HepG2 cells, read-out: Inhibition

Compound	cytotoxicity at 70.5 h [%]
COc1cccc2sc(N(C)CC(=O)NCc3nc(C)no3)nc12	-3.58
CC(C)(C)C(=O)NCc1cnn2ccccc12	-6.45
CC(C)(C)NC(=O)NCc1cnn2ccccc12	-9.3
Cc1nccn1-c1ccc(=O)n(CCNC(=O)Cc2ccccc2)n1	-12.3
Cc1ccc(S(=O)(=O)Nc2ccc(-n3nnn(C)c3=O)cc2)cc1	1.6
Cn1nnn(-c2ccc(NS(=O)(=O)c3ccc(F)c(Cl)c3)cc2)c1=O	-2.9
O=C(c1nnn(-c2ccccc2)n1)N(CCO)CCO	-5.32
Cc1ccc(-n2nnc(C(=O)NCC3CCCCC3)n2)cc1	-7.05
COCC(C)NC(=O)c1nnn(-c2ccc(OC)cc2)n1 (configuration not stated)	-9.57
O=C(c1nnn(-c2ccc(F)cc2)n1)N1CCC(O)CC1	2.17
COCC(C)NC(=O)c1nnn(-c2ccc(F)cc2)n1 (configuration not stated)	-5.45
O=C(c1nnn(-c2ccc(Cl)cc2)n1)N(CCO)Cc1ccccc1	-1.6
O=C(NC1(c2nc(C3CC3)no2)CCCCC1)c1ccncc1	5.56
COCCNC(=O)NC1(c2nc(-c3ccncc3)no2)CCCCC1	5.97
O=C(Cn1cccn1)N1CCC(c2nnc(C(F)(F)F)o2)CC1	30.9
CC(=O)N1CCC(c2nn(C)c(=O)n2-c2ccccc2)CC1	-1.32
Cn1c(C(F)(F)F)nn(CCNC(=O)CCc2ccccc2)c1=O	22.1
Cn1c(C(F)(F)F)nn(CCNC(=O)c2nc3ccccc3s2)c1=O	-8.57
CCS(=O)(=O)N1CCC(c2nnc(C(F)(F)F)o2)CC1	5.3
CNC(=O)CN1CCC(c2nn(C)c(=O)n2-c2ccccc2)CC1	-4.2
O=C1COc2ccc(Cl)cc2CN1CC1CC1	-12

Compound	cytotoxicity at 70.5 h [%]
O=C1COc2ccc(Br)cc2CN1CC1CC1	-16.7
O=C(c1nnn(-c2ccccc2Cl)c1-c1ccccn1)N1CCSCC1	-2.09
O=C(Cn1ccc2ccccc21)Nc1cc(N2CCOCC2)ncn1	14.8
O=C(Cc1c(F)cccc1Cl)Nc1cc(N2CCOCC2)ncn1	9.04
Cc1nc(C)c(C(=O)Nc2cc(N3CCC(C)CC3)ncn2)s1	0.183
COc1ccc(F)cc1S(=O)(=O)NCCn1cnc(C)cc1=O	-12.5
Cn1nc(N2CCCC(C(=O)Nc3nccs3)C2)ccc1=O (configuration not stated)	18
Cc1cc(C(=O)N(CC(F)(F)F)C2CCOCC2)c(C)o1	-7.23
O=C(C1=COCCO1)N1CC(Oc2nc3c(Cl)cccc3s2)C1	30.4
CCOCC(=O)NCCc1nc(C)cc(C(F)(F)F)n1	-10.8
O=C(CN1C(=O)CCC1=O)NCCc1nc(C2CC2)cc(C(F)(F)F)n1	31.4
O=C1CCSCC(C(=O)N2CCCCC2)N1 (configuration not stated)	-0.797
CS(=O)(=O)N1CCN(C(=O)C2CSCCC(=O)N2)CC1 (configuration not stated)	19.7
Cc1nnc(CNC(=O)C2CSCCC(=O)N2)o1 (configuration not stated)	45.2
CC(NC(=O)C1CN(c2ncnc3c2nnn3C)C1)c1ccccc1 (configuration not stated)	-16.6
O=C(O)CC(CC(=O)NCCc1ccsc1)c1cccs1 (configuration not stated)	-13.1
O=C(CCn1ccc(=O)[nH]c1=O)N1CCC(Oc2ccccn2)CC1	-4.88
Cc1ccc(S(=O)(=O)N2CCC(Oc3ccccn3)CC2)c(C)c1	-19.6
CCOC(=O)CCC(=O)N1CCC(Oc2ncccc2Cl)CC1	-4.05
O=C(c1ccccn1)N1CCC(Oc2ncccc2Cl)CC1	-2.05
COc1ccc(F)cc1S(=O)(=O)N1CCC(Oc2ccc(Cl)cn2)CC1	-3.49

Compound	cytotoxicity at 70.5 h [%]
COc1ccccc1C(=O)N1CCC(Oc2ccc(C#N)cn2)CC1	-2.18
N#Cc1ccc(OC2CCN(C(=O)c3ccc(Br)o3)CC2)nc1	20.2
Cc1noc(C)c1S(=O)(=O)N1CCC(Oc2cnccn2)CC1	11.2
COC(=O)c1sccc1S(=O)(=O)N1CCC(Oc2cnccn2)CC1	-7.44
O=S(=O)(c1ccccc1F)N1CCC(Oc2cccnn2)CC1	-7.73
O=C(NCc1ccccc1)N1CCC(Oc2ncccc2Br)CC1	-7.02
Cc1nc(OCC(=O)N2CCCC2)cc(-n2cccn2)n1	-7.15
O=C(COc1ccc(-n2cccn2)nn1)N1CCCC1	-2.51
COc1ncc(NS(=O)(=O)c2ccc(F)cc2F)cn1	-3.22
Cc1cccc(C(=O)N2CCN(c3ccc(-n4cccc4)nn3)CC2)c1	-7.5
O=S(=O)(NCCNc1ccc(-n2cccc2)nn1)c1ccccc1	-5.01
O=S(=O)(Cc1ccccc1)NCCNc1ccc(-n2cccc2)nn1	-13.6
O=S(=O)(NCCNc1ccc(-n2cccc2)nn1)c1cccs1	3.82
O=C(NCCNc1cc(-n2cccc2)ncn1)c1cccs1	-4.09
c1cncc(COCC2CN(Cc3ccco3)Cc3nccn3C2)c1 (configuration not stated)	-9.74
COCC1c2nnn(CC3CC3)c2CCN1C(=O)CS(C)(=O)=O (configuration not stated)	-12.6
COCC1c2nnn(CC3CC3)c2CCN1C(=O)C1CCOCC1 (configuration not stated)	-11.4
COCC1c2nnn(CC3CC3)c2CCN1C(=O)c1cnccn1 (configuration not stated)	-13
COCC1c2nnn(CC3CC3)c2CCN1C(=O)c1cc(C)[nH]c1C (configuration not stated)	-9.95
CS(=O)(=O)N1CCCC12CCCN(C(=O)c1cc(F)cc(F)c1)C2 (configuration not stated)	-11.7
COCC1c2nnn(CC3CC3)c2CCN1C(=O)c1ccncn1 (configuration not stated)	9.24

Compound	cytotoxicity at 70.5 h [%]
Cc1nc(C)n(CC2CN(S(C)(=O)=O)Cc3nccn3C2)n1 (configuration not stated)	9.77
CN(C)C(=O)c1cc2c(nc1NCC1CC1)CCNCC2	29.7
Cc1cccc(C(=O)N2CCCn3cnc(CN4CCCC4=O)c3C2)n1	30.9
Cc1noc(C2CCC3(CCN(C(=O)c4sccc4C)CC3)O2)n1 (configuration not stated)	-4
O=C(c1cccnc1)N1CCOCC2(CCN(c3ncccn3)C2)C1 (configuration not stated)	-1.45
CS(=O)(=O)N1CCc2ncc(CNC(=O)C3CCC3)n2CC1	-1.87
CC(C)CC(=O)N1CCCn2cnc(CNS(C)(=O)=O)c2C1	2.43
CC(C)c1ccc(OCC(=O)NS(=O)(=O)c2cccnc2)cc1	-0.457
Cc1cc(OCC(=O)NS(=O)(=O)c2cccnc2)ccc1Cl	-2.82
CC(C)c1nn(C)c(N(C)C)c1CNCc1cccc2cccnc12	5.24
Cc1ccc(CN2CCC3(CC(=O)N(c4cccc(F)c4)C3)C2)o1 (configuration not stated)	-17.4
O=C1CC2(CCN(CCO)C2)CN1c1cccc(F)c1 (configuration not stated)	-10.9
Cc1ncsc1CN1C[C@@H](OCC(=O)N(C)C)[C@H]2OCCC[C@H]21	-11.1
Cc1ccc(C(=O)N2CCc3ncnc(-c4cnn(C)c4)c3CC2)cn1	-2.36
O=C(NCC1CC1)[C@@H]1CC[C@@H]2[C@@H](CCN2Cc2ccco2)O1	1.26
CN(C)C(=O)N1CCC2(CC1)CCN(c1ncccn1)C2	2.39
O=C1CC2(CCN(Cc3ccncc3)C2)CN1c1cccc(F)c1 (configuration not stated)	-12.5
COCCN1CCc2cc(C(=O)O)c(NCC3CC3)nc2CC1	22.8
CN(C)CCOCC1CN(Cc2ccsc2)Cc2nnn(C)c21 (configuration not stated)	30.5
